Source: patent US20070078085A1, “Methods and compositions for the utilization and targeting of osteomimicry” (priority 2004, published 2007)
d = 2'-deoxy (DNA)

How the values were obtained:
AR = experiment: Western blot of AR in siRNA-infected C4-2B cells; type: cell-based, human; settings: retrovirally infected C4-2B cells
Procedure: (§1) FIG. 14. Western blot analysis of parental C4-2B (P), b2M-siRNA (siRNA) and scramble-siRNA (Scramble) retrovirally infected cells. Note AR and PSA expression were abolished by b2M-siRNA in C4-2B cells. EFIa was used as loading control.
(§2) Western blotting was performed using the NOVEX system (Invitrogen). […] Detection of protein bands was performed with ECL Western Boltting Detection Reagents (Amersham Biosciences Corp.).

PC3-Luc tumor = experiment: Subcutaneous bone powder PC3-Luc tumors, intratumoral siRNA-liposome, bioluminescence imaging; type: in vivo, athymic nu/nu mice; settings: intratumoral 0.8 μg siRNA three-time per week, four weeks, 28 days
Excerpt: (§3) The β2M- and control scramble-siRNA sequences were 5′-[…](dT)(dT)-3′ and 5′-[…](dT)(dT)-3′, respectively. For RNA delivery system, we used cationic liposome formulation, termed SN {Zou, 2002#68} to deliver β2M- and scramble-siRNA into cell lines or mice. The ratio of siRNA (μg) to SN (μl) was 1:24. To test prostate tumor growth inhibition by β2M-siRNA, four weeks old male athymic nu/nu mice were inoculated into the subcutaneous space of the chest regions with 2×10^6 cells of PC3-Luc or C4-2 mixed with 20 mg of bone powder (kindly provided by Dr. A. H. Reddi, University of California, Davis, Sacramento, Calif.) and 35 μl of Matrigel matrix (BD Bioscience, Bedford Mass.), respectively. Three (PC3-Luc) or four (C4-2) weeks later, the tumor-bearing mice were randomly divided into two groups. The mice in the treatment group received intratumoral injection of SN-β2M-siRNA for three-time per week continuously four weeks, at a dose of 0.8 μg of siRNA mixed with 19.2 μl of SN for each mouse. The control group injected with the same dose of SN-scramble-siRNA. To assay of anti-tumor activity of β2M-siRNA therapeutic efficacy, the real-time bioluminescence image by the CCD camera cryogenically cooled IVIS system with analysis software (Xenogen Corp., Alameda Calif.) (Ref) and serum PSA levels were used to monitored PC3-Luc and C4-2 tumor burden in nude mice.

C4-2-Luc tumor = experiment: Subcutaneous bone powder C4-2-Luc tumors, intratumoral siRNA-liposome, serum PSA; type: in vivo, athymic nu/nu mice; settings: intratumoral 0.8 μg siRNA three-time per week, four weeks, 28 days
Excerpt: as §3

[1] = tested on: human prostate cancer cell lines; experiment: In vitro cell proliferation assay, prostate cancer cells; type: cell-based; settings: for cell proliferation: Neo and b2M-overexpressed C4-2B clones, siRNA
Procedure: LNCaP, C4-2B, DU145, PC3, MG63 and ARCaP cell lines were seeded in 96-well plates in T-medium containing 5% FBS, respectively. After 24 h incubation, media were replaced by fresh, serum-free T-medium and incubated for an additional 24 h. […] Cell numbers were measured every 24 h using CellTiter 96® AQueous One Solution Cell Proliferation Assay (Promega, Madison, Wis.).

PSA = experiment: Western blot of PSA in siRNA-infected C4-2B cells; type: cell-based, human; settings: retrovirally infected C4-2B cells
Procedure: as §1, §2

b2M = b2M expression in C4-2B clones after siRNA; type: cell-based, human; settings: Neo and b2M-overexpressed C4-2B clones
Procedure: Total RNA was isolated from the confluent monolayer of cells using RNAZol B (Teltest Inc., Friendswood, Tex.). The total RNA was used as template for RT according to the manufacturer's instruction (Invitrogen). […] RT-PCR products were analyzed by 1.2% agarose gel electrophoresis.
as §2
The β2M- and control scramble-siRNA sequences were 5′-[…](dT)(dT)-3′ and 5′-[…](dT)(dT)-3′, respectively. For RNA delivery system, we used cationic liposome formulation, termed SN {Zou, 2002#68} to deliver β2M- and scramble-siRNA into cell lines or mice. The ratio of siRNA (μg) to SN (μl) was 1:24. […] To assay of anti-tumor activity of β2M-siRNA therapeutic efficacy, the real-time bioluminescence image by the CCD camera cryogenically cooled IVIS system with analysis software (Xenogen Corp., Alameda Calif.) (Ref) and serum PSA levels were used to monitored PC3-Luc and C4-2 tumor burden in nude mice.

hBSP promoter = experiment: hBSP promoter-luciferase reporter activity in transfected cells; type: cell-based, human; settings: C4-2B cells; db cAMP 10^−6 to 10^−3 M, FSK 10^−8 to 10^−5 M; 16 h; concentration-dependent
Excerpt: Plasmid Construction. Genomic DNA was used in the PCR of the 0.8-kb hOC promoter inserting KpnI and XhoI sites, subsequently cloned into pGL3-Basic-luciferase reporter vector (Promega, Madison, Wis.) as described before (9). The deletion constructs, ΔA [374 bp upstream of AP1/VDRE (AV) element], ΔTst-1 (POU-factor Tst-1/Oct-6 binding site), ΔCRE (cAMP-responsive element) and ΔIRF-1 (interferon regulatory factor-i binding site) in hOC promoter/pGL3 were generated by recombinant PCR technique. The point mutation plasmids in CRE (from -643 to -636 in hOC promoter, 5′-[…]-3′) were constructed with a QuikChange Site-Directed Mutagenesis Kit (Stratagene). […]
Transfection and Luciferase Activity Assay. […] For luciferase activity assay, 20 μl of the lysate supernatant was mixed with 100 μl of the luciferase substrate (Promega) and detected by a luminometer (Monolight 3010, luminometer PharMingen, San Diego, Calif.). For β-galactosidase activity assay, 100 μl of the supernatant was mixed with 100 μl of 2×β-galactosidase substrate [200 mM sodium phosphate buffer, pH 7.3, 2 mM MgCl2, 100 mM β-mercaptoethanol and 1.33 mg/ml o-nitrophenyl-β-D-galactopyranoside (ONPG)], and incubated at 37° C. for 30 min. β-galactosidase activity was detected by Microplate spectrophotometer (Molecular Devices Corp., Sunnyvale, Calif.) at 405 nm wavelength. […]

hOC promoter = experiment: hOC promoter-luciferase reporter activity in transfected cells; type: cell-based, human; settings: C4-2B cells, 16 h
Excerpt: Plasmid Construction. Genomic DNA was used in the PCR of the 0.8-kb hOC promoter inserting KpnI and XhoI sites, subsequently cloned into pGL3-Basic-luciferase reporter vector (Promega, Madison, Wis.) as described before (9). The deletion constructs, ΔA [374 bp upstream of AP1/VDRE (AV) element], ΔTst-1 (POU-factor Tst-1/Oct-6 binding site), ΔCRE (cAMP-responsive element) and ΔIRF-1 (interferon regulatory factor-i binding site) in hOC promoter/pGL3 were generated by recombinant PCR technique. The point mutation plasmids in CRE (from -643 to -636 in hOC promoter, 5′-[…]-3′) were constructed with a QuikChange Site-Directed Mutagenesis Kit (Stratagene). The mutation constructs (see below) are one-point substitution mutants, Mut1 (-642 G→T), Mut2 (-641 A→C), Mut3 (-640 C→A), Mut4 (-639 C→A) and Mut5 (-638 T→G), a two-point substitution mutant, Mut6 (-640 and -639 CC→AA), and a two-point deletion construct, Mut7 (-640 and -639 CC→XX). The 1.5-kb hBSP promoter construct prepared in the pGL3-luciferase reporter vector has been described previously (36). The single deletion constructs ΔCRE1 (-79 to -72) and ΔCRE2 (-674 to -667), and a double deletion construct ΔCRE2/CRE1 in the hBSP promoter/pGL3-luciferase plasmid were generated by recombinant PCR technique. All plasmid constructs were confirmed by DNA sequencing.
Transfection and Luciferase Activity Assay. Cells were trypsinized and seeded at a density of 1.5×10^5 cells/well (LNCaP, C4-2B, DU145 and ARCaP) and 1.0×10^5 cells/well (PC3 and MG63) in 12-well plates 24 h before transfection. Plasmid DNAs were introduced into cells by complexing with a commercial reagent DOTAP (Roche Molecular Biochemicals) according to the manufacturer's protocol. Each transfection reaction contained 1.25 μg of tested DNA constructs and 0.25 μg of the transfection efficiency control CMV promoter-driven β-galactosidase plasmid DNA. After 6 h transfection, DNA-liposome mixtures were replaced by fresh T-medium or CM. Tansfected cells were harvested and lysed in 1× Reporter Lysis buffer (Promega) after 36 h additional incubation. Cell lysates were vortexed for 15 s and spun for 10 min. For luciferase activity assay, 20 μl of the lysate supernatant was mixed with 100 μl of the luciferase substrate (Promega) and detected by a luminometer (Monolight 3010, luminometer PharMingen, San Diego, Calif.). For β-galactosidase activity assay, 100 μl of the supernatant was mixed with 100 μl of 2×β-galactosidase substrate [200 mM sodium phosphate buffer, pH 7.3, 2 mM MgCl2, 100 mM β-mercaptoethanol and 1.33 mg/ml o-nitrophenyl-β-D-galactopyranoside (ONPG)], and incubated at 37° C. for 30 min. β-galactosidase activity was detected by Microplate spectrophotometer (Molecular Devices Corp., Sunnyvale, Calif.) at 405 nm wavelength. Data were presented as normalized luciferase activity (means±standard deviations), defined as luciferase activity normalized to internal control β-galactosidase activity for transfection efficiency. All studies were performed in three independent experiments with duplicate assays.

OC mRNA = experiment: Semi-quantitative RT-PCR of endogenous OC mRNA; type: cell-based, human; settings: FSK 10^−6 M, 12 h
Procedure: (§4) Reverse Transcription-Polymerase Chain Reaction (RT-PCR) Analysis. Total RNA was isolated from confluent monolayers of cells using RNAZol B (Teltest Inc., Friendswood, Tex.). Five μg of total RNA was used as template and 0.15 μg of random hexanucleotide primers were added for reverse transcription and amplification in a reaction volume of 20 μl, according to the manufacturer's instruction (Invitrogen, Carlsbad, Calif.). After RT reaction, 3-5 μl of the 1st-strand cDNA was used for PCR with a PTC-100 programmable Thermal Controller (MJ Research Inc.). The oligonucleotide primer sets used for PCR analysis of cDNA are: hOC, 5′-[…]-3′ (forward) and 5′-[…]-3′ (reverse); hBSP, 5′-[…]-3′ (forward) and 5′-[…]-3′ (reverse); and glyceraldehyde phosphate dehydrogenase (GAPDH), 5′-[…]-3′ (forward) and 5′-[…]-3′ (reverse), respectively. The thermal profile for hOC amplification is 30 cycles starting with denaturation 1 min at 94° C., followed by 1 min of annealing at 55° C. and 1 min of extension at 72° C. For hBSP amplification the thermal profile is 35 cycles starting with denaturation 1 min at 94° C., followed by 30 s of annealing at 48° C. and 40 s of extension at 72° C. The program for GAPDH amplification is 25 cycles starting with denaturation 30 s at 94° C., followed by 30 s of annealing at 60° C. and 1 min of extension at 72° C. The RT-PCR products were analyzed by 1.2% agarose gel electrophoresis. Quantity one-4.1.1 Gel Doc gel documentation software (Bio-Rad) or NIH image were used for quantification of hOC and hBSP mRNA expression normalized by GAPDH mRNA expression.

BSP mRNA = experiment: Semi-quantitative RT-PCR of endogenous BSP mRNA; type: cell-based, human; settings: FSK 10^−6 M, 12 h
Procedure: as §4

C4-2B cells = experiment: Adhesion assay on ECM-coated 96-well plates; type: cell-based, human; settings: β2M siRNA vs scramble siRNA
Excerpt: FIG. 13. Adhesion assay of b2M-siRNA and scramble-siRNA infected C4-2B cells using 96-well plate pre-coated with Col I, LM, FN and Col IV. BSA was used as control (Con). *, p<0.05, **, p<0.005.
Cell attachment to BSA coated wells served as an internal control (Con).

Compound: 5′-UUCAUGUGUCUGUGGUGUU(dT)(dT)-3′ (siRNA; RNA, 3' dTdT, backbone not given here; scramble control, delivered in cationic liposome formulation SN) [scramble-siRNA]
- AR protein expression (AR): not
- growth of pre-established PC3-Luc tumors, Luc-imaging (BLI) (PC3-Luc tumor): not
- growth of pre-established C4-2-Luc tumors, serum PSA (C4-2-Luc tumor): not
- cell proliferation [1]: did not affect
- PSA protein expression (PSA): not
- b2M expression (b2M): did not affect

Compound: CCCC(=O)Nc1ncnc2c1ncn2[C@@H]1O[C@@H]2COP(=O)(O)O[C@H]2[C@H]1OC(=O)CCC [db cAMP, dibutyryl 3′,5′-cyclic AMP]
- hBSP promoter activity, effect of PKA pathway activators (hBSP promoter): stimulated
- hOC promoter activity, effect of PKA pathway activators (hOC promoter; db cAMP 10^−6 to 10^−3 M, FSK 10^−8 to 10^−5 M, concentration-dependent): stimulated

Compound: C=C[C@@]1(C)CC(=O)[C@]2(O)[C@@]3(C)[C@@H](O)CCC(C)(C)[C@@H]3[C@H](O)[C@H](OC(C)=O)[C@@]2(C)O1 [FSK, forskolin]
- steady-state level of OC mRNA, fold elevation (OC mRNA; C4-2B cells): 7.8 fold
- steady-state level of OC mRNA, fold elevation (OC mRNA; LNCaP cells): 5.2 fold
- level of BSP mRNA, fold increase (BSP mRNA; C4-2B cells): 5.4 fold
- level of BSP mRNA, fold increase (BSP mRNA; LNCaP cells): 3.2 fold

Compound: 5′-UUGCUAUGUGUCUGGGUUU(dT)(dT)-3′ (siRNA; RNA, 3' dTdT, backbone not given here; delivered in cationic liposome formulation SN) [b2M-siRNA]
- AR protein expression (AR): abolished
- cell attachment to collagen I (Col I) (C4-2B cells): no significant difference
- cell attachment to collagen IV (Col IV) (C4-2B cells): decreased attachment
- cell attachment to fibronectin (FN) (C4-2B cells): no significant difference
- cell attachment to laminin (LM) (C4-2B cells): no significant difference
- cell proliferation [1]: inhibited
- growth of prostate cancer cells in vitro and tumor growth in bone on blocking β2M signaling ([1]; preliminary investigations): greatly attenuated
- PSA protein expression (PSA): abolished
- b2M expression (b2M): inhibited

Compound: CCCCCCCCCCCCCC(=O)O[C@@H]1[C@@H](C)[C@@]2(O)[C@@H](C=C(CO)C[C@]3(O)C(=O)C(C)=C[C@@H]23)[C@@H]2C(C)(C)[C@]12OC(C)=O [PMA, phorbol 12-myristate 13-acetate]
- hOC promoter activity, induction by PKC pathway activator (hOC promoter; PMA 10^−6 M): induced hOC promoter activity to a lesser extent
